Data on one compound can be found in ChEMBL document CHEMBL6153101, “Chamilactones A and B, Sesquiterpenes from the Endophytic Fungus Chaetomium nigricolor F5” (J Nat Prod, 2025).

Common to all, as to type: functional, cell-based
Test [1] deals with BV-2. The test is described as follows: Anti-neuroinflammatory effect in mouse BV-2 cells assessed as inhibition of LPS-mediated nuclear translocation of NF-kappaB p65 at 20 to 40 uM preincubated for 2 h followed by stimulation with LPS for 1 h by immunocytochemical analysis. Particulars: dose 20-40 µM, time 3.0 hrs.
Test [2] concerns BV-2. The test can be described thus: Anti-neuroinflammatory effect in mouse BV-2 cells assessed as suppression of LPS-mediated IL-6 secretion preincubated for 2 hrs followed by stimulation with LPS for 24 hrs by ELISA assay. The following applies: dose 10-40 µM, time 26.0 hrs. In general terms: In an ELISA, binding on a coated surface is turned into a signal by an enzyme label.

Test [3] concerns BV-2. The test can be described thus: Anti-neuroinflammatory effect in mouse BV-2 cells assessed as decrease in LPS-mediated TLR4 expression at 10 to 40 uM preincubated for 2 hrs followed by stimulation with LPS for 24 hrs by Western blot analysis. The following applies: dose 10-40 µM, time 26.0 hrs.
Test [4] deals with BV-2. The test is described as follows: Anti-neuroinflammatory effect in mouse BV-2 cells assessed as suppression of LPS-mediated TNF-alpha secretion preincubated for 2 hrs followed by stimulation with LPS for 24 hrs by ELISA assay. Particulars: dose 10-40 µM, time 26.0 hrs.
The subject of test [5] is BV-2. The test can be described thus: Anti-neuroinflammatory effect in mouse BV-2 cells assessed as decrease in LPS-mediated p-p65 expression preincubated for 2 hrs followed by stimulation with LPS for 24 hrs by Western blot analysis. Particulars: dose 10-40 µM, time 26.0 hrs. (In western blotting, separated proteins are transferred to a membrane and probed.)

Activity calls are given as the source filed them. No cut-off for these calls is given here.

For the compound `Cc1c2c(cc3c1CCOC3=O)CC(C)(C)C2`, the inhibition result in test [1] is “Active”. In addition, the Activity entry in test [2] is “Dose-dependent-effect; Exhibited Most Potent Effect”; in test [4], “Dose-dependent-effect; Exhibited Most Potent Effect”; in test [5], “Dose-dependent-effect”. Moreover, in test [3], the result was Active.
